Assay results reported in US9474278B2, “Biocidal compositions and methods of use” (Dow Global Technologies LLC, priority 2011, dated 2016).

Assays:
[1] = system: Staphylococcus aureus ATCC 6538, Enterobacter aerogenes ATCC 13048, and Escherichia coli ATCC 8739; test: Biocidal efficacy: minimum biocide concentration for 99.9% bacterial kill in inoculated salt solution with re-challenges; assay type: cell-based; settings: alone or in the combination, 37° C.
Method: (§1) The synergy indexes reported in the following examples are calculated using the following equation: Synergy Index=Ca/CA+Cb/CB
Ca: Concentration of biocide A required to achieve a certain level of bacterial kill when used in combination with B.
CA: Concentration of biocide A required to achieve a certain level of bacterial kill when used alone.
Cb: Concentration of biocide B required to achieve a certain level of bacterial kill when used in combination with A.
CB: Concentration of biocide B required to achieve a certain level of bacterial kill when used alone.
(§2) A synergy index (SI) of 1 indicates additivity, a synergy index of less than 1 indicates synergy, and a synergy index greater than 1 indicates antagonism.
A sterile salt solution (0.2203 g of CaCl2, 0.1847 g of MgSO4, and 0.2033 g of NaHCO3 in 1 L water) is inoculated with approximately 10^7 CFU/mL of Staphylococcus aureus ATCC 6538, Enterobacter aerogenes ATCC 13048, and Escherichia coli ATCC 8739. Aliquots of the cell suspension are then treated with THPS, BIT, and combinations of these actives at selected concentrations and incubated at 37° C. for 14 days. After incubation for 24 hours, 3 days, and 7 days, the aliquots are re-challenged with bacterial suspension of the same bacteria at a final bacterial concentration of 10^5 CFU/mL. The biocidal efficacy is measured at 2 hours and 14 days by determining the minimum biocide concentration for 99.9% bacterial kill in the aliquots. Synergy Index is then calculated. Table 1 and 2 summarize the efficacy of each biocide and their combinations at 2 hour and 14 day treatment time respectively, and the resulting Synergy Index of each combination.

[2] = system: Candida albican, ATCC #10231; test: 96 well micro titer plate MIC / synergy assay in SDB; assay type: cell-based; settings: alone or in the combination, 48 hours
Method: as §1, §2

For O=c1[nH]sc2ccccc12 [BIT, 1,2-benzisothiazolin-3-one], the “Concentration (ppm active) for 99.9% bacterial kill in 2 hours, BIT” value ([1]; BIT concentration, 2 hour treatment) was over 300 ppm active and the “Concentration (ppm active) for 99.9% bacterial kill in 14 days, BIT” value ([1]; BIT concentration, 14 day treatment, re-challenged at 24 hours, 3 days, 7 days) was 150 ppm active.

In the case of Cn1sc2ccccc2c1=O [MBIT, 2-methyl-1,2-benzisothiazolin-3-one], the “Minimum Inhibitory Concentration against Candida albican (ppm), MBIT” value ([2]; MBIT concentration) was 0.375 ppm.

“tetrakis (hydroxymethyl) phosphonium sulfate [THPS]” was tested, and the “Concentration (ppm active) for 99.9% bacterial kill in 2 hours, THPS” value ([1]; THPS concentration, 2 hour treatment) was 38 ppm active, the “Concentration (ppm active) for 99.9% bacterial kill in 14 days, THPS” value ([1]; THPS concentration, 14 day treatment, re-challenged at 24 hours, 3 days, 7 days) was over 300 ppm active and the “Minimum Inhibitory Concentration against Candida albican (ppm), THPS” value ([2]; THPS concentration) was 1000 ppm.
